Usually pKa stands for the negative logarithm of the acid dissociation constant. As to `Nc1ccc(S(=O)(=O)Nc2ccc(N)cn2)cc1`, the pKa (acidic group) worked out at 8.47.

`CCN(CC)CCCC#N`: the pKa (basic group) came out at 9.29.

For the compound `Cc1cc([O-])nc(-n2nc(C)cc2O)n1`, the pKa (basic group) came to 10.

`O=C(O)c1ccc(F)c([N+](=O)[O-])c1` showed a pKa (acidic group) of 3.37.

In turn, `Sc1ccc(Br)cc1` registered a pKa (acidic group) of 5.8.

For `c1ccc2cc(NCC[NH2+]c3ccc4ccccc4c3)ccc2c1`, the pKa (basic group) stood at 1.8.

`Cc1nn(C)c(N(C)C(=O)CN)c1C(=O)c1ccccc1F` registered a pKa (basic group) of 7.52.

Turning to `OCc1nc2ncncc2[nH]1`, the pKa (acidic group) worked out at 8.79 and the pKa (basic group) was determined as 2.62.

Regarding `CC1=C(C)C(C(C)C(=O)O)CC1=O` (configuration not stated), the pKa (acidic group) worked out at 4.4.

Under “basic group”, `OCc1cc(-c2ccccc2)nnc1NCC[NH+]1CCOCC1` registered a pKa of 3.81.

`O=S1(=O)OC(c2cc(Br)c(O)c(Br)c2)(c2cc(Br)c(O)c(Br)c2)c2ccccc21`: where the note is “acidic group”, the pKa turned out to be 4.2.

Take `CC(=O)Nc1ccc(S(=O)(=O)Nc2nccc(C)n2)cc1`: the pKa was 5.46 (acidic group) and 0.9 (basic group).

Compound `Cc1cc(C)c2ccccc2n1` showed a pKa (basic group) of 5.11.

The compound `O=C(N/[NH+]=C/c1ccccc1)c1ccncc1` yielded a pKa (basic group) of 1.82.

Where the note is “basic group”, `COC(=O)c1ccc(N(C)C)cc1` returned a pKa of 2.61.

Compound `O=C1C[C@H](C(=O)O)[C@@H](C(=O)[O-])O1` yielded a pKa (acidic group) of 3.82.

`COc1ccc(C(O)c2ccccc2)cc1` (configuration not stated) returned a pKa (basic group) of -8.

For the compound `CC(N)CCc1ccc(O)cc1` (configuration not stated), under “basic group”, the pKa turned out to be 9.14.

Where the note is “acidic group”, `CC(O)c1cccc(O)c1CO` (configuration not stated) returned a pKa of 9.9.

Compound `Nc1c2ccccc2nc2c1ccc1c([N+](=O)[O-])cccc12` registered a pKa (basic group) of 7.1.

Take `N#CC(C#N)Cc1ccc([N+](=O)[O-])cc1`: the pKa (acidic group) was 10.9.

Turning to `O=C(O)CCCc1c[nH]c[nH+]1`, the pKa (acidic group) was 4.26.

With `[NH3+]CCCCCCNC(=S)S`, for the setting “acidic group”, the pKa was found to be 2.95.

The compound `N#Cc1cccc(S(N)(=O)=O)c1` returned a pKa (acidic group) of 8.84.

Regarding `Cc1ccc2cccnc2c1`, where the note is “basic group”, the pKa came out at 5.25.

Regarding `C[Se](=O)O`, the pKa (acidic group) was 5.19.

On to `Cc1cccc(/N=N/c2ccc(N)cc2)c1`, for which the pKa (basic group) is 2.88.

With `NCC(N)CN`, for the setting “basic group”, the pKa stood at 9.59.

`CC(C)(C)C(=O)n1cnc2ccccc21` came in with a pKa (basic group) of 2.

`Cc1ccc(C(=O)O)c(I)c1` showed a pKa (acidic group) of 3.2.

The compound `O=[N+]([O-])/C=C/c1cccc(O)c1` yielded a pKa (acidic group) of 9.05.

On to `COc1ccc2[nH]cc(CC(C)N)c2c1` (configuration not stated), for which, for the setting “basic group”, the pKa was 10.3.

The compound `Cn1cnc2cc(O)ccc21` showed a pKa (acidic group) of 9.85 and a pKa (basic group) of 6.1.

For `CCCCCCCCCCCCCCCCCN`, the pKa (basic group) stood at 10.6.

The compound `O=C(O)[C@@H]1CC[C@H](C(=O)O)S1` registered a pKa (acidic group) of 3.34.

In turn, `CNS(=O)(=O)C(F)(F)F` yielded a pKa (acidic group) of 7.56.

With `C#CCN(CC#C)CC#C`, the pKa (basic group) came out at 3.04.

The compound `CC(=O)CC=O` displayed a pKa (acidic group) of 6.12.

Consider `O=S(=O)([O-])c1ccc(O)c2cn[nH]c12`, for which, under “acidic group”, the pKa stood at 7.6.

For the setting “basic group”, `CN(C)c1ccc2cc3ccc([NH+](C)C)cc3[nH+]c2c1` yielded a pKa of -3.15.

With `O=C(O)Cc1cccc2ccccc12`, the pKa (acidic group) amounted to 4.24.

As to `CC(C)c1csc(C(=O)O)c1`, for the setting “acidic group”, the pKa amounted to 3.64.

In the case of `Cn1cnc2c(N)nc[nH+]c21`, the pKa (basic group) is -0.59.

Regarding `Cc1ccnc([S-])n1`, where the note is “basic group”, the pKa is 8.

`C/C(=C\Cl)C(=O)O` displayed a pKa (acidic group) of 4.03.

Regarding `Cc1ccc(Cl)c(C(=O)O)c1`, the pKa (acidic group) worked out at 3.12.

The compound `CC(C)N(Cc1ccccc1O)C(C)C` showed a pKa (acidic group) of 11.4 and a pKa (basic group) of 7.55.

`C[C@H]1O[C@H](O[C@H]2CC[C@H](n3ccc(N)nc3=O)O[C@@H]2C)[C@H](O)[C@@H](O)[C@@H]1N(C)C` showed a pKa (basic group) of 7.

Take `Cc1cc(O)n(-c2nc(O)c(C)c(C)[nH+]2)n1`: the pKa (acidic group) stood at 5.5.

In the case of `CC(N)c1ccccc1` (configuration not stated), under “basic group”, the pKa came to 9.36.

For the setting “acidic group”, `O=C(O)CCc1ccc(Cl)cc1` yielded a pKa of 4.65.

With `Clc1ccc(C2CN2)cc1` (configuration not stated), where the note is “basic group”, the pKa is 6.18.

In turn, `CC1=CC(=O)C(C(C)C)=C/C1=N/c1ccc(O)cc1` had a pKa (acidic group) of 8.8.

`C[n+]1cnc2nc([O-])cnc2c1[O-]` gave a pKa (basic group) of 6.19.

`CCOC(=O)c1cnc2ccccc2c1OCC`: the pKa (basic group) was 3.88.

For the compound `[NH3+]C(Cc1c[nH]c(=S)[nH]1)C(=O)O` (configuration not stated), under “acidic group”, the pKa came out at 1.84.

For the setting “acidic group”, `C/C=C(\Cl)C(=O)O` displayed a pKa of 3.22.

For the setting “acidic group”, `O=C(O)CCS` displayed a pKa of 4.38.

Consider `N[C@H]1C[C@@H]1[NH3+]`, for which the pKa (basic group) is 5.9.

Compound `N[C@H]1CC(=O)N(CCCC[C@H]([NH3+])C(=O)[O-])C1=O` came in with a pKa (basic group) of 6.

Compound `Cc1nccnc1C` registered a pKa (basic group) of 2.24.

The compound `CC(C=C(c1cccs1)c1cccs1)N1CCCCCC1` (configuration not stated) had a pKa (basic group) of 7.96.

The compound `CC(C)c1cccc2ccc(O)cc12` yielded a pKa (acidic group) of 9.52.

Where the note is “basic group”, `N=C(c1ccccc1)c1ccccc1Cl` returned a pKa of 5.59.

`NCCN1CCOCC1` returned a pKa (basic group) of 9.45.

As for `CC(C#N)CC(=O)O` (configuration not stated), the pKa (acidic group) came out at 3.95.

In turn, `Sc1cc2ccccc2cn1` returned a pKa (acidic group) of 8.58 and a pKa (basic group) of 0.39.
